Source: patent US20090325208A1 (priority 2006, published 2009)
pIC50: −log10 of the molar value.

Experiments:
purified 20S proteasome = purified 20S proteasome (Homo sapiens, UniProt P28074); details: read-out: IC50 against purified 20S proteasome; cited from earlier work
animal tumor models = details: cited from earlier work
[1] = tested on: multiple myeloma cells that have become refractory to bortezomib therapy; details: cited from earlier work
[2] = tested on: assembled 20S proteasome from recombinant subunits containing the SalJ β-subunit; test: 20S Proteasome Activity Assay (Chemicon), cleavage of LLVY-AMC; assay type: biochemical, S. tropica; details: assembled recombinant 20S proteasome with SalJ β-subunit (Ala→Val at residue 49); FIG. 19
Text: (§1) Inhibition of the 20S proteasome will also be measured 20S for all new salinosporamides. The CHEMICON Proteasome Activity Assay Kit by Chemicon International provides a system that is designed to detect the chymotrypsin-like activity of the yeast 20S proteasome through the release of the fluorophore AMC (7-amino-4-methylcoumarin) from the specific substrate Suc-LLVY-AMC after cleavage. AMC can be detected using a fluorometer with a 380 nm excitation and a 460 nm emission filter. For inhibitor screening, the test sample is added to the assay plate and fluorescence read, looking for a reduction in proteasome activity.
(§2) The ubiquitin-proteasome pathway involves the 26S proteasome, which is formed by the barrel-shaped 20S proteasome (about 700 kDa) and two 19S (about 700 kDa) regulatory complexes on each end of the 20S proteasome. […] Cleavage of the free flourophore, 7-Amino-4-methylcoumarin (AMC) from LLVY can be detected and quantified using a 380/460 nm filter set in a flourmeter. […]
(§3) The present invention describes the biosynthesis of SalJ (FIG. 16). […] Yet, the assembled-recombinant 20S proteasome with the SalJ β-subunit (far right two bars) confers resistance to at least SalA as there was no substantial measurable difference in the level of fluorescence of the free AMC (FIG. 19) in the presence or absence of SalA. […]

yeast 20S proteasome = target: T1, yeast 20S proteasome (Saccharomyces cerevisiae, UniProt P30656); test: as above; assay type: biochemical; details: preliminary experiments, FIG. 19
T1 construct: minus the N-terminal propeptide that is cleaved off autocatalytically during assembly; purchased Chemicon International
Text: as §1, §2, §3

[3] = tested on: S. tropica 20S proteasome; test: as above; assay type: biochemical; details: preliminary experiments, FIG. 19
Text: as §1, §2, §3

[4] = tested on: colon, pancreatic, and lung cancers; details: cited from earlier work
[5] = target: T2, 3-hydroxy-3-methylglutaryl-CoA synthase (HMGS) (Homo sapiens, UniProt Q01581); details: cited from earlier work
T2 sequence (Q01581 1-520): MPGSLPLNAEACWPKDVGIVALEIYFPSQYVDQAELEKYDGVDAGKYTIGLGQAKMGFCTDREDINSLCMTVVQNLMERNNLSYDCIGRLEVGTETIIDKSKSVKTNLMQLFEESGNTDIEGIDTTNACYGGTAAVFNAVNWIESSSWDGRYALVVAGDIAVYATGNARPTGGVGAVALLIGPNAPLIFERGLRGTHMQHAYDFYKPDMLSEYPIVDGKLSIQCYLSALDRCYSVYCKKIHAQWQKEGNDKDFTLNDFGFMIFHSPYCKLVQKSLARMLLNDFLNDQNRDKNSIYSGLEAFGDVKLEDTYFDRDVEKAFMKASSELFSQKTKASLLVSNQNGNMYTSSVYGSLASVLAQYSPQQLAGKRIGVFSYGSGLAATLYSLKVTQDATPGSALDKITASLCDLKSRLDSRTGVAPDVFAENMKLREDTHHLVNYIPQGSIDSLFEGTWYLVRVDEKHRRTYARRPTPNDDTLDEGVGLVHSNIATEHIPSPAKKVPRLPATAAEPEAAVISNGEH

In the case of `CC(C)[C@H](O)[C@@]12NC(=O)[C@H](C)[C@@H]1OC2=O` [omuralide, clasto-lactacystin-β-lactone, reference compound], the pIC50 (purified 20S proteasome) is listed as 7.31.
For `C[C@@]12OC(=O)[C@]1([C@@H](O)[C@@H]1C=CCCC1)NC(=O)[C@@H]2CCCl` [salinosporamide A], the oral activity (animal tumor models) is listed as “orally active”, the survival (animal tumor models) is listed as “prolongs survival” and the tolerability (animal tumor models) is listed as “well tolerated”. The induction of apoptosis [1] was “induces apoptosis”, the “inhibition of 20S proteasome (fluorescence of free AMC)” value [2] was “not inhibited” and the “inhibition of 20S proteasome (fluorescence of free AMC)” value (yeast 20S proteasome) was “inhibited”. The “inhibition of 20S proteasome (fluorescence of free AMC)” value [3] was “inhibited” and the “efficacy in animal models” value [4] was “efficacious”.
In the case of `CC(=C\C(=O)O)/C=C(\C)C[C@H](C)CCCC[C@H]1OC(=O)[C@@H]1CO` [F-244], the pIC50 [5] is given as 7.46.
